From patent US20240269143A1, “COMBINATION THERAPY COMPRISING A MAT2A INHIBITOR AND TYPE I PRMT INHIBITOR” (IDEAYA BIOSCIENCES, INC., priority 2021, published 2024)

Tests used:
[1] = system: BxPC-3 tumors; test: Anti-tumor efficacy in pancreatic xenograft BxPC-3; format: in vivo, mouse; conditions: Day 28
Protocol: The BxPC-3 tumor cell line was maintained in vitro as a monolayer culture in RPMI 1640 medium supplemented with 10% fetal bovine serum at 37° C. in an atmosphere of 5% CO2 in air. The tumor cells were routinely sub-cultured, not to exceed 4-5 passages. The cells growing in an exponential growth phase were harvested and counted for tumor inoculation. Each mouse was inoculated subcutaneously on the right flank with 5 million BxPC-3 tumor cells in 0.1 mL RPMI 1640 and Matrigel mixture (1:1 ratio) for tumor development.
Tumor Volume (TV) was calculated using the following formula: TV (mm^3)=(width×width×length)/2. No dose holidays were provided for during the study and all mice were euthanized following the final dose on Day 28. Tumor growth inhibition (TGI) was calculated by [(TV controlfinal−TV treatedfinal)/(TV controlfinal−TV controlinitial)×100]. TV was analyzed for statistical significance using GraphPad Prism version 9.1.0. Repeated Measures 2-Way ANOVA with Tukey's Multiple Comparisons was utilized, and P-values were presented from the final tumor measurement and were considered statistically significant if less than 0.05. The treatment started when the mean tumor volume reached about 197 mm^3. Mice were then randomly assigned to respective groups so that the mean starting tumor volume was the same among groups. Mice were dosed orally, once per day, with Vehicle, Compound A at 10 mg/kg, Compound B at 9.375 or 18.75 mg/kg, or Compound A at 10 mg/kg and Compound B at 9.375 mg/kg, or Compound A at 10 mg/kg and Compound B at 18.75 mg/kg. The Doses were staggered with Compound A given first and Compound B administrated 2 hours later. Likewise, the Vehicle B (for Compound B, Saline) was administrated to animals 2 hours later than the Vehicle A (for Compound A, 0.5% 400 cps methylcellulose with 0.5% Tween-80 in sterile water).

[2] = system: HCT-116 MTAP-deleted tumors; test: Anti-tumor efficacy in HCT-116 MTAP-deleted mouse xenograft; format: in vivo; conditions: Day fourteen
Protocol: (§1) The effect of Compound A and Compound B as single-agent anti-tumor agents and in combination was assessed in the HCT-116 human colon tumor cell line, MTAP isogenic pair (MTAP proficient (WT) or MTAP-deleted). Cells were expanded in DMEM/F12 GlutaMAX (Fisher Scientific, Catalog Number 10-565-018) with 10% fetal bovine serum. These cells were free of mycoplasma and authenticated as HCT-116 by STR profiling. Two and a half million cells in log growth phase were resuspended in Hanks Balanced Salt Solution containing 50% Matrigel and implanted subcutaneously into the flank of each recipient female CB17/lcr-Prkd^scid/lcrlcoCrl mouse. Mice were housed in microisolator cages with corn cob bedding with additional enrichment consisting of sterile nesting material (Innovive) and Bio-huts (Bio-Serv). Water (Innovive) and diet (Teklad Global 19% Protein Extruded Diet 2919, Irradiated) were provided ad libitum. The environment was maintained on a 12-hour light cycle at approximately 68-72° F. and 40-60% relative humidity.
(§2) Tumor Volume (TV) was calculated using the following formula: TV (mm^3)=(width×width×length)/2. No dose holidays were provided for during the study and all mice were euthanized following the final dose on Day fourteen. Tumor growth inhibition (TGI) was calculated by [(TV controlfinal−TV treatedfinal)/(TV controlfinal−TV controlinitial)×100]. TV was analyzed for statistical significance utilizing GraphPad Prism version 9.1.0. Repeated Measures 2-Way ANOVA with Tukey's Multiple Comparisons was utilized, and P-values were presented from the final tumor measurement and were considered statistically significant if less than 0.05.
(§3) Mean tumor volume at dosing start was approximately 128-145 mm^3, with seven mice randomized to each treatment group. The study design was identical for both models, with the study consisting of six treatment groups. Mice were dosed orally, once per day, with Vehicle, Compound A at 5 mg/kg, Compound B at 9.375 or 18.75 mg/kg, or Compound A at 5 mg/kg and Compound B at 9.375 mg/kg, or Compound A at 5 mg/kg and Compound B at 18.75 mg/kg. The doses were staggered with Compound A given first and Compound B administered 2 hours later. Likewise, the Vehicle B (for Compound B, Saline) was administered to animals 2 hours later than the Vehicle A (for Compound A, 0.5% 400 cps methylcellulose with 0.5% Tween-80 in sterile water).

[3] = system: HCT-116 MTAP WT tumors; test: Anti-tumor efficacy in HCT-116 MTAP WT mouse xenograft; format: in vivo; conditions: Day fourteen
Protocol: as §1, §2, §3

[4] = system: KP4 pancreatic cancer cell line; test: 5-day proliferation screening, combination synergy (HSA, Loewe, Bliss); format: cell-based; conditions: HSA and Loewe models, single agent activity of Compound B
Protocol: (§4) A 4-day proliferation screening was done in colorectal cancer lines HCT116 and HCT116 MTAP−/− (CRISPR Knock-out), and a 5-day proliferation screening was performed in pancreatic cancer cell lines BxPC3, KP4 and lung cancer line, NCI-H838. The nuclei were fluorescent tagged for all the cell lines. Combinations included a 5-fold titration from 10 uM for MAT2Ai (Compound A) and 5-fold titration from 20 uM for Type1 PRMTi (Compound B). Cells were plated at a seeding density 1000 cells/well in a 96-well format 24h before treatment and treated the following day with an 8×8 double matrix titration (five-fold dilution series) of Compound A (MAT2Ai) and Compound B (Type I PRMTi). Triplicates were run for each data point. Nuclear count was measured at the end point using the IncuCyte S3 Live-Cell Analysis System. Average fluorescence of cells treated with DMSO was set to 100% and the % viable cells were calculated accordingly. Dose response curves for single drug activity and drug-drug synergy for combinations were generated using Combenefit software. Synergy was evaluated using HSA, Loewe, and Bliss models.

[5] = system: NCI-H838 lung cancer line; test: as above; format: cell-based; conditions: HSA and Loewe models, single agent activity of Compound B
Protocol: as §4

[6] = Compound A 10 mg/kg orally once per day
[7] = Compound A 5 mg/kg orally once per day
[8] = Compound B 9.375 mg/kg orally once per day
[9] = Compound B 18.75 mg/kg orally once per day

Row | SMILES | Final TV (mean) [1, 6] | TGI (tumor growth inhibition) [1, 6] | Final TV (mean) [2, 7] | TGI (tumor growth inhibition) [2, 7] | Final TV (mean) [3, 7] | TGI (tumor growth inhibition) [3, 7] | Final TV (mean) [1, 8] | TGI (tumor growth inhibition) [1, 8] | Final TV (mean) [1, 9] | TGI (tumor growth inhibition) [1, 9] | concentration of Compound B above which modest cytotoxicity observed [4] | concentration of Compound B above which modest cytotoxicity observed [5] | Final TV (mean) [2, 8] | TGI (tumor growth inhibition) [2, 8] | Final TV (mean) [2, 9] | TGI (tumor growth inhibition) [2, 9] | Final TV (mean) [3, 8] | TGI (tumor growth inhibition) [3, 8] | Final TV (mean) [3, 9] | TGI (tumor growth inhibition) [3, 9]
1 | Nc1nc(=O)n(-c2ccccc2Cl)c2nc(C(F)(F)F)ccc12 [Compound A] | 686 mm^3 | 37% | 232 mm^3 | 68% | 539 mm^3 | 56% | – | – | – | – | – | – | – | – | – | – | – | – | – | –
2 | CCOCC1(COCC)CCC(c2n[nH]cc2CN(C)CCNC)CC1 [Compound B] | – | – | – | – | – | – | 638 mm^3 | 44% | 415 mm^3 | 72% | above 0.8 uM | above 0.16 uM | 441 mm^3 | 4% | 357 mm^3 | 30% | 928 mm^3 | 13% | 907 mm^3 | 16%
